Assay: xn = mol fraction of the nth substance listed

c1ncncn1 + O
viscosity [mPa·s], 101 kPa
Settings | x1 = 9.04e-05 | x1 = 0.0001902 | x1 = 0.0002698 | x1 = 0.0003238 | x1 = 0.0005432 | x1 = 0.0005796 | x1 = 0.0006388
293.15 K | 0.9241 | 0.9097 | 0.8902 | 0.8869 | 0.8968 | 0.8957 | 0.8944
298.15 K | 0.8187 | 0.8008 | 0.7878 | 0.7742 | 0.8122 | 0.8002 | 0.7864
303.15 K | 0.7307 | 0.7212 | 0.7162 | 0.71 | 0.7263 | 0.7135 | 0.6979

CC(C)CCO + OCC(O)CO
viscosity [mPa·s], 100 kPa
Settings | x1 = 0.0692 | x1 = 0.1425 | x1 = 0.2195 | x1 = 0.3027 | x1 = 0.3954 | x1 = 0.498 | x1 = 0.6042 | x1 = 0.7235 | x1 = 0.8535
298.15 K | 879.2 | 810.7 | 738.6 | 660.6 | 573.7 | 477.4 | 377.4 | 265 | 142.2
303.15 K | 583.7 | 540.5 | 494.2 | 443.9 | 387.3 | 323.9 | 257.5 | 181.7 | 97.82
308.15 K | 389.9 | 363 | 333.5 | 301.1 | 263.5 | 220.7 | 175.6 | 123.8 | 67.02

CC(CC(C)(C)C)CP(=O)(O)CC(C)CC(C)(C)C (stereo unspecified) + ClCCCl
298.15 K, 101 kPa
Settings | viscosity [mPa·s]
x1 = 0.0052 | 0.825
x1 = 0.0094 | 0.891
x1 = 0.0107 | 0.931
x2 = 0.0747 | 93.3
x2 = 0.1457 | 79.06
x2 = 0.2376 | 61.57
x2 = 0.3715 | 42.12
x2 = 0.568 | 20.09
x2 = 0.7166 | 9.021
x2 = 0.8017 | 5.212
x2 = 0.8105 | 4.99
x2 = 0.8887 | 2.678
x2 = 0.8942 | 2.603
x2 = 0.9417 | 1.597
x2 = 0.9439 | 1.578
x2 = 0.9767 | 1.087

CCOCCO + C=C(C)C(=O)OC
viscosity [mPa·s], 101.3 kPa
Settings | 298.15 K | 308.15 K
x2 = 0.0533 | 1.64 | 1.305
x2 = 0.154 | 1.402 | 1.146
x2 = 0.2467 | 1.225 | 1.022
x2 = 0.3554 | 1.059 | 0.9
x2 = 0.4551 | 0.937 | 0.807
x2 = 0.4993 | 0.89 | 0.77
x2 = 0.5543 | 0.838 | 0.727
x2 = 0.6547 | 0.758 | 0.658
x2 = 0.7547 | 0.693 | 0.6
x2 = 0.8858 | 0.628 | 0.537
x2 = 0.9532 | 0.603 | 0.517

CCOCCO + CCCCCCCCCC
viscosity [mPa·s], 101.33 kPa
Settings | x1 = 0.0958 | x1 = 0.2018 | x1 = 0.2985 | x1 = 0.4011 | x1 = 0.4984 | x1 = 0.5978 | x1 = 0.6989 | x1 = 0.7994 | x1 = 0.8984
298.15 K | 0.828 | 0.851 | 0.905 | 0.962 | 1.046 | 1.128 | 1.223 | 1.345 | 1.512
303.15 K | 0.767 | 0.785 | 0.827 | 0.879 | 0.946 | 1.016 | 1.108 | 1.209 | 1.354
308.15 K | 0.709 | 0.725 | 0.766 | 0.806 | 0.866 | 0.929 | 1.001 | 1.096 | 1.223
313.15 K | 0.661 | 0.681 | 0.705 | 0.744 | 0.797 | 0.844 | 0.921 | 0.992 | 1.103

CC(C)CCO + NC=O
298.1 K, 101 kPa
Settings | viscosity [mPa·s]
x2 = 0.0932 | 3.579
x2 = 0.1809 | 3.571
x2 = 0.2579 | 3.687
x2 = 0.3292 | 3.799
x2 = 0.4564 | 3.993
x2 = 0.5661 | 4.174
x2 = 0.6617 | 4.273
x2 = 0.7463 | 4.252
x2 = 0.8205 | 4.071
x2 = 0.8871 | 3.8
x2 = 0.9462 | 3.567

NCC(=O)NCC(=O)NCC(=O)O + O
viscosity [mPa·s]
Settings | 298.15 K | 303.15 K | 308.15 K | 313.15 K | 318.15 K
100 kPa, x1 = 0.0008998 | 0.9044 | 0.8108 | 0.7322 | 0.6656 | 0.6079
100 kPa, x1 = 0.001798 | 0.9128 | 0.8191 | 0.7406 | 0.6738 | 0.6157
100 kPa, x1 = 0.002695 | 0.9213 | 0.8272 | 0.7481 | 0.6812 | 0.6229
100 kPa, x1 = 0.00359 | 0.9287 | 0.8347 | 0.7552 | 0.6885 | 0.6298
100 kPa, x1 = 0.004483 | 0.9364 | 0.8418 | 0.7623 | 0.6953 | 0.6366
100 kPa, x1 = 0.005375 | 0.9426 | 0.8482 | 0.7691 | 0.7018 | 0.6429
100 kPa, x1 = 0.006266 | 0.95 | 0.8548 | 0.7757 | 0.7082 | 0.6492
100 kPa, x1 = 0.007154 | 0.9566 | 0.8615 | 0.7818 | 0.7147 | 0.6552
101 kPa, x1 = 0.000199 | 0.8947 | – | 0.7233 | – | 0.5994
101 kPa, x1 = 0.000396 | 0.8988 | – | 0.7269 | – | 0.6027
101 kPa, x1 = 0.0006084 | 0.9032 | – | 0.7307 | – | 0.6058
101 kPa, x1 = 0.0007854 | 0.9075 | – | 0.7343 | – | 0.6087
101 kPa, x1 = 0.001106 | 0.9149 | – | 0.7403 | – | 0.6138
101 kPa, x1 = 0.001839 | 0.9325 | – | 0.7547 | – | 0.6255
101 kPa, x1 = 0.002563 | 0.9511 | – | 0.7694 | – | 0.637
101 kPa, x1 = 0.003356 | 0.9729 | – | 0.7857 | – | 0.6495
101 kPa, x1 = 0.0046 | 1.01 | – | 0.8123 | – | 0.6694

CCOCCO + Cc1ccccc1C
viscosity [mPa·s], 101 kPa
Settings | 298.15 K | 308.15 K
x1 = 0.0533 | 0.777 | 0.674
x1 = 0.1508 | 0.817 | 0.708
x1 = 0.2502 | 0.867 | 0.75
x1 = 0.3516 | 0.931 | 0.8
x1 = 0.4528 | 1.009 | 0.858
x1 = 0.5042 | 1.056 | 0.892
x1 = 0.553 | 1.104 | 0.926
x1 = 0.6472 | 1.211 | 1.001
x1 = 0.7494 | 1.353 | 1.096
x1 = 0.8486 | 1.52 | 1.204
x1 = 0.954 | 1.739 | 1.34

CNCCO + COCCO
viscosity [mPa·s], 101.3 kPa
Settings | 293.15 K | 298.15 K | 303.15 K | 308.15 K | 313.15 K | 318.15 K | 323.15 K
x1 = 0.101 | 2.086 | 1.866 | 1.677 | 1.516 | 1.375 | 1.254 | 1.147
x1 = 0.303 | 3.283 | 2.869 | 2.523 | 2.234 | 1.988 | 1.78 | 1.601
x1 = 0.403 | 3.985 | 3.444 | 3 | 2.632 | 2.324 | 2.064 | 1.843
x1 = 0.503 | 4.964 | 4.234 | 3.644 | 3.163 | 2.766 | 2.435 | 2.156
x1 = 0.703 | 7.364 | 6.129 | 5.157 | 4.384 | 3.762 | 3.256 | 2.839
x1 = 0.901 | 10.98 | 8.877 | 7.286 | 6.054 | 5.088 | 4.323 | 3.709

Cc1ccc(NC(=O)NCCCCCCCCCCCCCCC(C)C)cc1NC(=O)NCCCCCCCCCCCCCCC(C)C + CCCCC
Settings | viscosity [mPa·s]
293.15 K, 100 kPa, x1 = 0.0001 | 2

CC(C)CCO + CCOCCO
313.15 K, 101 kPa
Settings | viscosity [mPa·s]
x1 = 0.102 | 1.385
x1 = 0.2036 | 1.425
x1 = 0.8035 | 1.945

CCOCCO + CCCCO
viscosity [mPa·s]
Settings | 298.15 K | 303.15 K | 308.15 K | 313.15 K
101 kPa, x1 = 0.0837 | 2.434 | – | – | –
101 kPa, x1 = 0.1706 | 2.312 | – | – | –
101 kPa, x1 = 0.2606 | 2.206 | – | – | –
101 kPa, x1 = 0.3541 | 2.113 | – | – | –
101 kPa, x1 = 0.4513 | 2.035 | – | – | –
101 kPa, x1 = 0.5523 | 1.984 | – | – | –
101 kPa, x1 = 0.6574 | 1.949 | – | – | –
101 kPa, x1 = 0.7669 | 1.925 | – | – | –
101 kPa, x1 = 0.881 | 1.902 | – | – | –
101.33 kPa, x1 = 0.1017 | 2.284 | 1.999 | 1.771 | 1.565
101.33 kPa, x1 = 0.2007 | 2.13 | 1.887 | 1.671 | 1.49
101.33 kPa, x1 = 0.2996 | 2.015 | 1.787 | 1.589 | 1.42
101.33 kPa, x1 = 0.4028 | 1.958 | 1.731 | 1.546 | 1.378
101.33 kPa, x1 = 0.5032 | 1.891 | 1.677 | 1.499 | 1.34
101.33 kPa, x1 = 0.6036 | 1.86 | 1.656 | 1.48 | 1.331
101.33 kPa, x1 = 0.6986 | 1.838 | 1.634 | 1.462 | 1.31
101.33 kPa, x1 = 0.8029 | 1.829 | 1.63 | 1.458 | 1.314
101.33 kPa, x1 = 0.9 | 1.822 | 1.629 | 1.462 | 1.309

CCCCCCCCCCOC(C)=O + CCCCCC
303.15 K, 101.3 kPa
Settings | viscosity [mPa·s]
x1 = 0.2001 | 0.4713
x1 = 0.4057 | 0.7528
x1 = 0.5086 | 0.9289
x1 = 0.5995 | 1.116
x1 = 0.7551 | 1.473

CC(C)CCO + CN1CCCC1=O
298.15 K, 101 kPa
Settings | viscosity [mPa·s]
x2 = 0.0595 | 3.229
x2 = 0.1189 | 2.874
x2 = 0.1501 | 2.732
x2 = 0.2008 | 2.549
x2 = 0.2536 | 2.402
x2 = 0.2994 | 2.298
x2 = 0.3506 | 2.205
x2 = 0.4002 | 2.132
x2 = 0.4519 | 2.06
x2 = 0.5025 | 2.015
x2 = 0.5513 | 1.97
x2 = 0.6039 | 1.926
x2 = 0.6515 | 1.889
x2 = 0.7026 | 1.855
x2 = 0.7505 | 1.823
x2 = 0.8015 | 1.791
x2 = 0.8546 | 1.763
x2 = 0.9046 | 1.739
x2 = 0.9562 | 1.715

CCOCCO + CCC(C)=O
298.15 K, 101 kPa
Settings | viscosity [mPa·s]
x2 = 0.1219 | 1.479
x2 = 0.2381 | 1.178
x2 = 0.3488 | 0.948
x2 = 0.4545 | 0.767
x2 = 0.5555 | 0.609
x2 = 0.6521 | 0.524
x2 = 0.7446 | 0.457
x2 = 0.8333 | 0.419
x2 = 0.9183 | 0.387

Reference: the CheMixHub viscosity set
